Measurements from US3963745A, “Method for controlling emesis with N-(1-substituted-3-pyrrolidinyl)benzamides and thiobenzamides” (A. H. Robins Company, Incorporated, priority 1974, dated 1976).
Counter-ions that a name gives are not always drawn. Like-named read-outs stand apart in the source and are kept apart here.

Tests used:
Type in all cases: in vivo
[1] = test system: apomorphine-induced emesis; assay: apomorphine-induced emesis in dogs (anti-emetic effect); conditions: for ED50: Canis lupus familiaris
Experimental: The anti-emetic properties of the compounds of Formulae I and II were established using a modification of the methods of Chen and Ensor, J. Pharmac. Exp. Ther. 98: 245-250 (1950) and of Leonard et al, J. Pharmac. Exp. Ther. 154, 339-345 (1966). Drug activity was assessed by its ability to reduce the frequency of apomorphine-induced emesis in dogs. The dogs were prescreened for fairly constant emetic responses to the subcutaneous administration of 0.1 mg./kg. of apomorphine hydrochloride, and those which vomited five or more times in the 40-minute period after apomorphine administration were selected for drug studies.
Groups of three dogs were used in preliminary tests and for the determinations of time of peak drug effect. Dose response curves were usually obtained using four drug-treated groups; each group contained at least three dogs. The dogs were fed approximately 17 hours prior to a test. Drugs were administered and at suitable intervals the dogs received 0.1 mg/kg of apormorphine hydrochloride subcutaneously. Frequency of emesis was determined during the next 40 minutes and emesis was counted as the actual expulsion of stomach contents.
In oral studies, drugs were administered in gelatin capsules (controls received an empty capsule). In the subcutaneous studies, drugs were administered in distilled water and/or polyethylene glycol-300.
Dogs were re-used at intervals of not less than one week. The ED50 is the dose which reduces the frequency of emesis of drug treated dogs to a value 50% below that of controls. Mean frequency of emesis for each drug treated group was compared with a mean control value derived by pooling the prior control emetic frequencies for all dogs used on that test day. The difference is expressed as a percentage decrease relative to controls. The per cent decrease in mean frequency of emesis for each drug-treated group (ordinate) was plotted against log dose (abscissa) on semi-log graph sheets. The ED50 was calculated by the method of Goldstein (Biostatistics, An Introductory Test; Pages 156-161; the MacMillan Co., New York, 1964).

[2] = test system: catalepsy in rats; assay: Catalepsy in rats; conditions: Table 7, rats, IP
Experimental: (§1) Drugs were blind tested with positive and negative controls. The procedure used is a modification of the method previously described by Tedeschi et al., Archs. Int. Pharmacodyn. Ther. 122, 129-143 (1959). The modified procedure is as follows.
(§2) Groups of six rats are dosed (IP) with drugs in saline solution and tested hourly over a 6 hour period. A phenothiazine or non-phenothiazine reference standard is tested concomitantly as a positive control; negative controls receive only the saline vehicle. After administration the rats are positioned hourly with each foot on a No. 7 rubber stopper. A rat is considered cataleptic if it remains immobile on the stoppers for five seconds or longer at two or more consecutive hourly observation intervals. […] Exp. Ther. 96, 99-113 (1949).

[3] = Catalepsy in rats; conditions: rat, in vivo, ip
Experimental: as §1, §2

[4] = sc, Table 4, dogs, subcutaneous, doses expressed as free base, read-out: ED50, Anti-Emetic Effect of Subcutaneous Administration
[5] = sc, read-out: ED50, Anti-Emetic Effect of Subcutaneous Administration
[6] = sc, Table 7, dogs, subcutaneous, as free base, read-out: Anti-Apomorphine Effect ED50
[7] = Table 5, dogs, oral, doses expressed as free base, read-out: ED50, Anti-Emetic Effect of Oral Administration
[8] = sc, Table 6, dogs, subcutaneous, as free base, read-out: Anti-Apomorphine Effect ED50

O=C(NC1CCN(C2CCCCC2)C1)c1ccc(Cl)c(Cl)c1 (stereo not drawn) [Example 13]
ED50 [1, 4]: 0.28 mg/kg

O=C(NC1CCN(C2CCCCC2)C1)c1cc([N+](=O)[O-])cc([N+](=O)[O-])c1 (stereo not drawn) [Example 12]
ED50 [1, 5]: 0.15 mg/kg

CC(=O)Nc1ccc(C(=O)NC2CCN(C3CCCCC3)C2)cc1 (stereo not drawn) [Example 7, N-(1-Cyclohexyl-3-pyrrolidinyl)-4-acetamidobenzamide]
ED50 [1, 5]: 2.4 mg/kg

Nc1ccc(C(=O)NC2CCN(C3CCCCC3)C2)cc1 (stereo not drawn) [Example 23]
ED50 [1, 4]: 1.67 mg/kg | ED50 [1, 6]: 1.7 mg/kg | ED50 [1, 7]: 2.5 mg/kg | Catalepsy, percentage of rats cataleptic ([2]; at 94.2 mg/kg as free base): 33%

O=C(NC1CCN(C2CCCCC2)C1)c1ccc(Cl)cc1Cl (stereo not drawn) [Example 32]
ED50 [1, 5]: 2.4 mg/kg

O=C(NC1CCN(C2CCCCC2)C1)c1ccccc1F (stereo not drawn) [Example 2, N-(1-Cyclohexyl-3-pyrrolidinyl)-2-fluorobenzamide hydrochloride]
ED50 [1, 4]: 1.6 mg/kg

Cc1ccc(C(=O)NC2CCN(C3CCCCC3)C2)cc1 (stereo not drawn) [Example 36]
ED50 [1, 4]: 0.31 mg/kg

O=C(NC1CCN(C2CCCCC2)C1)c1ccc([N+](=O)[O-])cc1 (stereo not drawn) [Example 25]
ED50 [1, 4]: 2.03 mg/kg | ED50 [1, 6]: 1.8 mg/kg | TD50 at 6 h [3]: 28 mg/kg

O=C(NC1CCN(C2CCCCC2)C1)c1cccc(C(F)(F)F)c1 (stereo not drawn) [Example 16]
ED50 [1, 4]: 0.18 mg/kg

O=C(NC1CCN(C2CCCCC2)C1)c1ccc(Cl)cc1 (stereo not drawn) [Example 17]
ED50 [1, 4]: 0.28 mg/kg

O=C(NC1CCN(C2CCCCC2)C1)c1cccc(Br)c1 (stereo not drawn) [Example 1, N-(1-Cyclohexyl-3-pyrrolidinyl)-3-bromobenzamide]
ED50 [1, 4]: 0.4 mg/kg

O=C(NC1CCN(C2CCCCC2)C1)c1ccc(F)cc1 (stereo not drawn) [Example 10]
ED50 [1, 5]: 0.15 mg/kg | ED50 [1, 7]: 1.5 mg/kg

CN(C)c1ccc(C(=O)NC2CCN(C3CCCCC3)C2)cc1 (stereo not drawn) [Example 35]
ED50 [1, 4]: 0.89 mg/kg

O=C(NC1CCN(C2CCCCC2)C1)c1ccc(I)cc1 (stereo not drawn) [Example 20]
ED50 [1, 4]: 1.25 mg/kg

COc1cc(C(=O)NC2CCN(C3CCCCC3)C2)cc(OC)c1OC (stereo not drawn) [Example 18]
ED50 [1, 4]: 0.4 mg/kg

CCOc1ccc(C(=O)NC2CCN(C3CCCCC3)C2)cc1OCC (stereo not drawn) [Example 15]
ED50 [1, 4]: 0.66 mg/kg

COc1ccc(C(=O)NC2CCN(C3CCCCC3)C2)c(OC)c1 (stereo not drawn) [Example 34]
ED50 [1, 4]: 0.026 mg/kg

COc1cc(N)c(Cl)cc1C(=O)NC1CCN(C2CCCCC2)C1 (stereo not drawn) [Example 37]
ED50 [1, 4]: 0.003 mg/kg | ED50 [1, 8]: 0.003 mg/kg

CN(C)c1ccc(C(=O)N(C)C2CCN(C3CCCCC3)C2)cc1 (stereo not drawn) [Example 6, N-(1-Cyclohexyl-3-pyrrolidinyl)-p-dimethylamino-N-methylbenzamide Fumarate]
ED50 [1, 4]: 1.1 mg/kg

CN(C(=O)c1ccc([N+](=O)[O-])cc1)C1CCN(C2CCCCC2)C1 (stereo not drawn) [Example 27]
ED50 [1, 6]: 10 mg/kg | Catalepsy (ED50 or other): no catatonia up to dose ([2]; as free base): no catatonia to 100 | lethal dose ([2]; as free base): 100 mg/kg

CN(C(=O)c1ccc(N)cc1)C1CCN(C2CCCCC2)C1 (stereo not drawn) [Example 4, 4-Amino-N-(1-cyclohexyl-3-pyrrolidinyl)-N-methylbenzamide Cyclohexanesulfamate]
ED50 [1, 6]: 0.27 mg/kg | ED50 ([1]; sc, dogs, subcutaneous, cyclohexanesulfamate salt dose, read-out: ED50 for subcutaneous administration): 0.43 mg/kg | ED50 ([1]; sc, dogs, subcutaneous, expressed as free base (Example 1P), read-out: ED50 for subcutaneous administration, expressed as free base): 0.27 mg/kg | blockage of apomorphine induced emesis ([1]; dogs, oral capsules 2.5 mg./kg., apomorphine after two hours): 95% | blockage of emesis ([1]; dogs, subcutaneous 5.0 mg./kg. (3.12 mg./kg. as free base), apomorphine one hour later, 40-minute period): 100% | Catalepsy (ED50 or other): no catatonia up to dose ([2]; as free base): no catatonia to 125

O=C(NC1CCN(C2CCCCC2)C1)c1ccc(Br)cc1 (stereo not drawn) [Example 11]
ED50 [1, 4]: 0.7 mg/kg

CNc1ccc(C(=O)N(C)C2CCN(C3CCCCC3)C2)cc1.Cl.Cl (stereo not drawn) [Example 9, 4-Methylamino-N-(1-cyclohexyl-3-pyrrolidinyl)-N-methylbenzamide Dihydrochloride]
ED50 [1, 4]: 0.5 mg/kg

CN1CCC(NC(=O)c2ccccc2)C1.O=C(O)/C=C/C(=O)O (stereo not drawn) [Example 8(A), N-(1-Methyl-3-pyrrolidinyl)benzamide Fumarate, reference compound]
ED50 [1, 8]: 3.2 mg/kg

COc1cc(N)c(Cl)cc1C(=O)NC1CCN(C)C1 (stereo not drawn) [Example 8(B), 4-Amino-5-chloro-2-methoxy-N-(1-methyl-3-pyrrolidinyl)benzamide, reference compound]
ED50 [1, 8]: 0.053 mg/kg

O=C(NC1CCN(C2CCCCC2)C1)c1ccccc1 (stereo not drawn) [Example 24]
ED50 [1, 4]: 0.28 mg/kg | ED50 [1, 8]: 0.28 mg/kg

CSc1ccc(C(=O)NC2CCN(C3CCCCC3)C2)cc1 (stereo not drawn) [Example 33]
ED50 [1, 4]: 0.88 mg/kg
